Results from ChEMBL document CHEMBL1128796, “2-Substituted 2-aminoethanol: Minimum essential structure for immunosuppressive activity of ISP-I (Myriocin)” (Bioorg Med Chem Lett, 1995).
Counter-ions that a name gives are not always drawn.

Species: Mus musculus
Experiment: Effect on mouse allogenic mixed lymphocyte reaction (MLR)
Type: functional

SMILES	IC50
CCCCCCCCCCCCCCCCCCC(CO)CO	> 10000 nM
CCCCCCCCCCCCCCCCCCC(N)CO (configuration not stated)	140 nM
CCCCCCCCc1ccc(CCC(N)CO)cc1 (configuration not stated)	11 nM
CCCCCCC(=O)CCCCCC/C=C/C[C@@H](O)[C@H](O)[C@@](N)(CO)C(=O)O [MYRIOCIN]	8 nM

Other lines, results leading:

IC50	SMILES
12 nM	CCCCCCCCCCCCCCCCCCC(N)(CO)CO
6.1 nM	CCCCCCCCc1ccc(CCC(N)(CO)CO)cc1 [FINGOLIMOD HYDROCHLORIDE]
> 10000 nM	CCCCCCCCCCCCCCCCCCN [OCTADECYLAMINE]
